Measurements: article PMC11468294, “Peptide Amphiphiles as Biodegradable Adjuvants for Efficient Retroviral Gene Delivery” (Advanced Healthcare Materials, 2023)
Entries after “also recorded” stand apart in the source; their conditions may differ. Where a SMILES comes first, the peptide text is derived from it. The star is where a group is joined. Palmitoyl = CCCCCCCCCCCCCCCC(=O)*

What was measured:
[1] = Microscopic aggregation (fluorescence / confocal microscopy, derived count rate); assay type: physicochemical; settings: for formation of µm-sized aggregates (in words): fibrils preformed at 1 mg mL-1 in PBS, ThT or Proteostat stain, widefield or confocal microscopy, derived count rate > 1000 kcps as criterion; for assembly in water (fluorescence microscopy): incubated 1 d in pure MilliQ water, ThT stain
[2] = Control experiments degradation analysis without cells; assay type: physicochemical; settings: Proteostat-stained fibrils without cells, 37°C, 30 min vs 3 d
Description: Control experiments degradation analysis: To check changes of fibril aggregation without cells fluorescence microscopy measurements (Leica DMi8 microscope, 10x air objective, Leica MC170 HD camera, λem = 527/30 nm, λex = 480/40 nm) were performed analogously to the cell‐experiments with PA1‐3. Briefly, 4 µL of the preformed peptide fibrils (1 mg mL^−1) were diluted with 4 µL Proteostat (Enzo Life Science, 1 µL stock in 999 µL PBS) and incubated for 10 min and further diluted with medium to receive a final peptide concentration of 20 µg mL^−1. The fibril aggregates were monitored after 30 min incubation at 37°C and for the evaluation of aggregate degradation, the samples were further incubated at 37°C for 3 d and analyzed without any additional washing step. […] The evaluation of aggregate size and number was conducted by analyzing Proteostat stained aggregates via the 3D objects counter function of ImageJ 1.53f51 for at least three individual measurements (area 1331.2 µm × 1331.2 µm) of three individually repeated experiments. […]
Aggregate analysis was conducted via fluorescence microscopy by cumulating triplicate measurements. […]

Jurkat cells = experiment: CellTiter-Glo cell viability, Jurkat cells; assay type: cell-based; settings: increasing peptide concentrations, 3 days, biological triplicate
Description: Cell Viability with TZM‐bl and Jurkat cells: The cell viability after addition of peptides to TZM‐bl cells and Jurkat was studied via the CellTiter‐Glo assay. To this end, 20000 cells TZM‐bl or 50000 Jurkat cells were incubated with serial diluted peptides. After 3 days the supernatant was removed and 100 µL CellTiter‐Glo Reagent 1:1 diluted in PBS was added. After 10 min 50 µL was transferred to white microplate and luminescence was recorded by Orion microplate luminometer.

HeLa cells = experiment: Confocal microscopy degradation study with PA1-3 and HeLa cells; assay type: in vitro ADME; settings: for degradation of aggregates > 10 µm^2 over 3 days: HeLa cells, 4 µg peptide (20 µg mL-1) added to 40,000 cells, 37°C, 30 min vs 3 d, Proteostat stain, confocal microscopy
Description: Confocal laser scanning microscopy and degradation study with PA1‐3 and HeLa cells: HeLa cells were seeded one day prior to conducting the assay (40000/well) in an 8‐well IBIDI slide. 4 µL of the preformed peptide fibrils (1 mg mL^−1) were diluted with 4 µL Proteostat (Enzo Life Science, 1 µL stock in 999 µL PBS) and incubated for 10 min and further diluted with medium to receive a final peptide concentration of 20 µg mL^−1. The nucleus of the HeLa cells was stained with Hoechst 33 342 (NucBlue, Thermo Fisher Scientific). The peptide solution was transferred to the HeLa cells and incubated for 30 min at 37°C before washing three times with PBS. The interaction of fibril clusters with cells was monitored after 30 min incubation time on a Stellaris 8 confocal laser scanning microscope (Leica) equipped with a 20x air objective and laser excitation wavelengths of 405 nm (Hoechst) and 561 nm (Proteostat). For the evaluation of aggregate degradation, the samples were further incubated at 37°C for 3 d and analyzed without any additional washing step. The evaluation of aggregate size and number was conducted by analyzing Proteostat stained aggregates via the 3D objects counter function of ImageJ 1.53f51 for 3 individual measurements (area 581.25 µm × 581.25 µm). […] The number of aggregates larger than 10 µm^2 were counted via the 3D objects counter function of ImageJ 1.53f51. The mean number and standard deviations were determined by averaging at least three technical triplicates.

| Compound | formation of µm-sized aggregates (in words) [1] | assembly in water (fluorescence microscopy) [1] | change of aggregate size and number without cells [2] | viability of Jurkat cells (Jurkat cells) | degradation of aggregates > 10 µm^2 over 3 days (HeLa cells) [%] | aggregate size (large aggregates) (HeLa cells; confocal aggregate size analysis with HeLa cells) [µm^2] |
| --- | --- | --- | --- | --- | --- | --- |
| C16-VVVAAAKKK-NH2 [PA1] | micrometer‐sized clusters of fibrils were formed; also recorded: less aggregation; also recorded: form µm‐sized aggregates | distinct fibrils | not significantly changing in size and number | did not reduce the viability | 94 | – |
| CCCCCCCCCCCCCCCC(=O)N[C@@H](Cc1ccccc1)C(=O)N[C@@H](CCC(N)=O)C(=O)N[C@@H](Cc1ccccc1)C(=O)N[C@@H](CCCCN)C(=O)N[C@@H](Cc1ccccc1)C(=O)N[C@@H](CCCCN)C(=O)N[C@@H](CS)C(N)=O [PA2] (Palmitoyl-FQFKFKC-NH2) | micrometer‐sized clusters of fibrils were formed; also recorded: high aggregation; also recorded: form µm‐sized aggregates | distinct fibrils | not significantly changing in size and number | did not reduce the viability | 52 | > 50 |
